Results published in US12465637B2, “Compositions and methods for modulation of antibody activity” (Institute for Cancer Research, priority 2019, dated 2025).

How the values were obtained:
CTLA-4 = CTLA-4 sandwich ELISA (BioLegend); format: binding; settings: compared with ipilimumab
Experimental: Two anti-CTLA-4 scFv constructs (3GSWT with -GG(GGSGG)3GG- linker (SEQ ID NO: 6) and 5GSWT with -GG(GGSGG)5GG- linker (SEQ ID NO: 7)) were generated based on ipilimumab. The activity of each scFv antibody construct was compared via a sandwich ELISA assay (BioLegend; San Diego, CA), according to the manufacturer's instruction.
The triple mutation (VLF98G/VHV37A/VHW110G) was introduced into the 5GSWT scFv construct. The ability of JK43 to rescue the triple mutant was then tested. Briefly, the ability of the wild-type (5GSWT scFv construct) and triple mutant constructs to bind CTLA-4 was tested in the presence or absence of JK43 using the above sandwich ELISA assay, according to the manufacturer's instructions.

[1] = system: 4D5Flu triple mutant (VLF98G/VHV37A/VHW110G); experiment: Fluorescein fluorescence quenching, effector (JK43/analog) rescue of triple mutant; format: biochemical; settings: effector titration; 500 nM triple mutant, 10 nM fluorescein, 1% DMSO
Experimental: For the protein titration experiment, samples were prepared by titrating varying concentrations of protein (WT or triple mutant) into PBS containing a final concentration of 10 nM fluorescein and 1% DMSO, with or without 100 μM JK43. For the JK43 titration experiment, samples were prepared by titrating varying concentrations of JK43 into PBS with a final concentration of 10 nM fluorescein, 1% DMSO and 500 nM protein (WT or triple mutant). For the SAR experiment, samples were prepared by adding 10 μM of JK43 analogs into PBS with a final concentration of 10 nM fluorescein, 1% DMSO and 500 nM triple mutant.
Fluorescence quenching experiments were carried out in a SpectraMax® i3x Multi-Mode Microplate Reader (Molecular Devices), using a Costar 96-well black round bottom plates, 200 μL reaction volume, excitation wavelength of 475 nm and emission wavelength of 525 nm, at a temperature of 27° C. Blank measurements containing all sample components except fluorescein were subtracted to remove background. All samples were normalized to a control of fluorescein alone (0% quenching) and buffer alone (100% quenching).

Molecule | Binding of CTLA-4 (FIG. 6B) (CTLA-4) | EC50 [1] [µM]
3GSWT: anti-CTLA-4 scFv based on ipilimumab with -GG(GGSGG)3GG- linker (SEQ ID NO: 22) | readily bind CTLA-4, albeit slightly less potently than ipilimumab | –
c1ccc(COc2ccc3cc[nH]c3c2)cc1 [JK25, 6-phenylmethoxy-1H-indole] | – | 25
c1ccc(COc2ccc3cn[nH]c3c2)cc1 [JK43, 6-phenylmethoxy-1H-indazole] | – | 16
